Assay results taken from patent US10501460B2, “Heterocyclic compounds and uses thereof” (Plexxikon Inc., priority 2013, dated 2019).

Assays:
bromodomain = assay: Bromodomain cell assays of Example 40 (at least one of them); assay type: cell-based; details: in at least one of the bromodomain cell assays described in Example 40
Source text: (§1) Published bromodomain inhibitors JQ1 and iBET 151 have shown activity in variety of cancer cells such leukemia and lymphoma, multiple myeloma cells, NUT midline carcinoma and glioblastoma cells (Dawson M A et al. 2011; Delmore J E 2011; Chen Z et al. 2013; Filippakopoulos P et al. 2010; Mertz J A et al. 2011; Ott C J et al. 2012). In this study, we test compounds in different cancer cell lines. MV-4-11 and MOLM-13 are AML cell lines harboring a MLL-AF4 and MLL-AF9 translocation, respectively. MM.1S is a multiple myeloma cell line. SK-N-AS, IMR-32 and SK-N-BE(2) are neuroblastoma cell lines. IMR-32 and SK-N-BE(2) cell lines harbor MYCN amplifications. MV-4-11, MM.1S, IMR-32, SK-N-AS and SK-N-BE(2) were obtained from ATCC (IL, USA) and MOLM-13 were purchased from DSMZ (Braunschweig, German). Cells are cultured as recommended by their sources. For growth inhibition studies 3000 cells are seeded in wells of a 96-well plate in 75 μL of culture media. After several hours, growth media containing compounds of formula (I) are added to the wells. Compound at a maximal concentration of 5 mM was serially diluted 1:3 for a total of 8 point titration with DMSO as a control. A 1 μL aliquot of each dilution point is added to 249 μL growth media and 75 μL is added to each well containing cells, providing 10 μM compound at the maximum concentration point. The final concentration of DMSO in all wells is 0.2%. Cells are incubated for 72 hours, and 25 μL of CellTiter Glo Reagent (Promega Ga., USA) is added to each well. Plates are shaken for approximately 10 minutes and chemiluminescent signal is read on Tecan microplate reader. The measured luminescence correlates directly with cell number.
(§2) All data is normalized to the mean of eight DMSO high control wells on each plate. A four parameter curve fit of the following formula was then applied: Y=a+(b−a)/(1+(x/c)^d) Where ‘a’ is the minimum, ‘b’ is the maximum, ‘c’ is the pIC50 and ‘d’ is the Hill slope. […] Myc Reporter Assay
In MV-4-11 cells, BRD2, BRD3 and BRD4 bind to the promoter region of MYC and regulate its transcription (Dawson M A et al. 2011). The literature bromodomain inhibitor iBET 151 could disrupt BRD4 recruitment to the MYC promoter and subsequently downregulate c-myc transcription (Dawson M A et al. 2011). Myc protein is a transcription factor that heterodimerizes with an obligatory partner Max and regulates the transcription of genes important for cell proliferation, differentiation, and apoptosis. This Myc reporter assay is used to monitor the inhibitory effect of compound of formula (I) on Myc dependent gene expression. Effective compounds could have potential therapeutic effects in Myc-driven tumors.
The MV-4-11 Myc reporter cell line is established by infecting MV-4-11 with VSV-g pseudotyped lentivirus expressing the firefly luciferase gene under the control of a minimal (m) CMV promoter and tandem repeats of the E-box transcriptional response element (TRE) (Qiagen IL, USA) and selecting cells in […] Puromycin.
The MV-4-11 Myc reporter cell line is maintained in Iscove's Modified Dulbecco's Medium containing 10% FBS, 1% PenStep and 2.5 μg/ml Puromycin. Cells are incubated at 37° C. in a humidified atmosphere with 5% CO2. 25,000 cells are seeded in 96-well plate in 50 μL of culture media. After several hours, growth media containing 2× compounds are added to the wells. Compound at a maximal concentration of 5 mM is serially diluted 1:3 for a total of 8 point titration. A 1 μl aliquot of each dilution point is added to 249 μl growth media and 50 μl is added to each well containing cells, providing 10 μM compound at the maximum concentration point. DMSO treated cells serve as a high control and 10 μM JQ1 treated cells serve as a low control. Cells are incubated for a further 24 hours and 25 μL of CellTiter-Fluo Reagent (Promega Ga., USA) is added to each well. Plates are shaken for approximately 2 minutes and incubated at 37° C. for 0.5 hour. […]

MV-4-11 = assay: Oncology cell growth assay MV-4-11 (CellTiter Glo, 72 hours); assay type: cell-based; details: Homo sapiens, MV4-11, 72 h; MV-4-11 cell growth inhibitory activity, 3d
Source text: as §1, §2
The following table provides data indicating the BRD4 biochemical inhibitory activity and MV-4-11 cell growth inhibitory activity for exemplary compounds as described herein.

Row | Compound | IC50 (bromodomain) | IC50 (MV-4-11)
1 | COc1ncc(F)cc1C(O)c1c[nH]c2ncc(-c3c(C)noc3C)cc12 (stereo not shown) [P-0022, [5-(3,5-dimethylisoxazol-4-yl)-1H-pyrrolo[2,3-b]pyridin-3-yl]-(5-fluoro-2-methoxy-3-pyridyl)methanol] | < 10 µM | ≤ 1 µM
2 | Cc1noc(C)c1-c1cnc2[nH]cc(C3(O)CCC(F)(F)CC3)c2c1 [P-0024, 1-[5-(3,5-dimethylisoxazol-4-yl)-1H-pyrrolo[2,3-b]pyridin-3-yl]-4,4-difluoro-cyclohexanol] | < 10 µM | 1 to 10 µM
3 | COc1ncc(C(O)c2c[nH]c3ncc(-c4c(C)noc4C)cc23)cc1F (stereo not shown) [P-0025, [5-(3,5-dimethylisoxazol-4-yl)-1H-pyrrolo[2,3-b]pyridin-3-yl]-(5-fluoro-6-methoxy-3-pyridyl)methanol] | < 10 µM | 1 to 10 µM
4 | Cc1noc(C)c1-c1cnc2[nH]cc(Cc3ccccc3Cl)c2c1 [P-0026, 4-[3-[(2-chlorophenyl)methyl]-1H-pyrrolo[2,3-b]pyridin-5-yl]-3,5-dimethyl-isoxazole] | < 10 µM | 1 to 10 µM
5 | Cc1noc(C)c1-c1cnc2[nH]cc(Cc3c(F)cccc3Cl)c2c1 [P-0027, 4-[3-[(2-chloro-6-fluoro-phenyl)methyl]-1H-pyrrolo [2,3-b]pyridin-5-yl]-3,5-dimethyl-isoxazole] | < 10 µM | 1 to 10 µM
6 | COc1ncc(F)cc1Cc1c[nH]c2ncc(-c3c(C)noc3C)cc12 [P-0028, 4-[3-[(5-fluoro-2-methoxy-3-pyridyl)methyl]-1H-pyrrolo[2,3-b]pyridin-5-yl]-3,5-dimethyl-isoxazole] | < 10 µM | ≤ 1 µM
7 | Cc1noc(C)c1-c1cnc2[nH]cc(C3=CCC(F)(F)CC3)c2c1 [P-0029, 4-[3-(4,4-difluorocyclohexen-1-yl)-1H-pyrrolo[2,3-b]pyridin-5-yl]-3,5-dimethyl-isoxazole] | < 10 µM | 1 to 10 µM
8 | Cc1noc(C)c1-c1cnc2[nH]cc(C(O)C3CCC(F)(F)CC3)c2c1 (stereo not shown) [P-0030, (4,4-difluorocyclohexyl)-[5-(3,5-dimethylisoxazol-4-yl)-1H-pyrrolo[2,3-b]pyridin-3-yl] methanol] | < 10 µM | ≤ 1 µM
9 | Cc1noc(C)c1-c1cnc2[nH]cc(C(=O)C3CCC(F)(F)CC3)c2c1 [P-0031, (4,4-difluorocyclohexyl)-[5-(3,5-dimethylisoxazol-4-yl)-1H-pyrrolo[2,3-b]pyridin-3-yl]methanone] | < 10 µM | 1 to 10 µM
10 | Cc1noc(C)c1-c1cnc2[nH]cc(CC3CCC(F)(F)CC3)c2c1 [P-0034, 4-[3-[(4,4-difluorocyclohexyl)methyl]-1H-pyrrolo[2,3-b]pyridin-5-yl]-3,5-dimethyl-isoxazole] | < 10 µM | ≤ 1 µM
11 | CCCCS(=O)(=O)n1ccc2ncc(-c3c(C)noc3C)cc21 [P-0036, 4-(1-butylsulfonylpyrrolo [3,2-b]pyridin-6-yl)-3,5-dimethyl-isoxazole] | < 10 µM | 1 to 10 µM
12 | Cc1noc(C)c1-c1cnc2ccn(S(=O)(=O)C3CCCC3)c2c1 [P-0037, 4-(1-cyclopentylsulfonylpyrrolo [3,2-b]pyridin-6-yl)-3,5-dimethyl-isoxazole] | < 10 µM | ≤ 1 µM
13 | Cc1noc(C)c1-c1cnc2ccn(S(=O)(=O)c3ccccc3)c2c1 [P-0038, 4-[1-(benzenesulfonyl)pyrrolo [3,2-b]pyridin-6-yl]-3,5-dimethyl-isoxazole] | < 10 µM | ≤ 1 µM
14 | Cc1noc(C)c1-c1cnc2[nH]cc(C(O)c3cccc(OC(F)(F)F)c3)c2c1 (stereo not shown) [P-0039, [5-(3,5-dimethylisoxazol-4-yl)-1H-pyrrolo[2,3-b]pyridin-3-yl]-[3-(trifluoromethoxy)phenyl] methanol] | < 10 µM | 1 to 10 µM
15 | Cc1noc(C)c1-c1cnc2[nH]cc(C(O)c3ccccc3OC(F)F)c2c1 (stereo not shown) [P-0040, [2-(difluoromethoxy)phenyl]-[5-(3,5-dimethylisoxazol-4-yl)-1H-pyrrolo[2,3-b]pyridin-3-yl] methanol] | < 10 µM | ≤ 1 µM
16 | Cc1noc(C)c1-c1cnc2[nH]cc(C(O)c3cccc4c3OC(F)(F)O4)c2c1 (stereo not shown) [P-0041, (2,2-difluoro-1,3-benzodioxol-4-yl)-[5-(3,5-dimethylisoxazol-4-yl)-1H-pyrrolo[2,3-b]pyridin-3-yl] methanol] | < 10 µM | 1 to 10 µM
17 | CCc1[nH]c2ncc(-c3c(C)noc3C)cc2c1C(O)c1ccccc1Cl (stereo not shown) [P-0042, (2-chlorophenyl)-[5-(3,5-dimethylisoxazol-4-yl)-2-ethyl-1H-pyrrolo[2,3-b]pyridin-3-yl]methanol] | < 10 µM | ≤ 1 µM
18 | CCc1[nH]c2ncc(-c3c(C)noc3C)cc2c1C(O)c1cccc(OC(F)(F)F)c1 (stereo not shown) [P-0043, [5-(3,5-dimethylisoxazol-4-yl)-2-ethyl-1H-pyrrolo[2,3-b]pyridin-3-yl]-[3-(trifluoromethoxy)phenyl]methanol] | < 10 µM | 1 to 10 µM
19 | CCc1[nH]c2ncc(-c3c(C)noc3C)cc2c1C(O)C1CCC(F)(F)CC1 (stereo not shown) [P-0044, (4,4-difluorocyclohexyl)-[5-(3,5-dimethylisoxazol-4-yl)-2-ethyl-1H-pyrrolo[2,3-b]pyridin-3-yl]methanol] | < 10 µM | ≤ 1 µM
20 | CCc1[nH]c2ncc(-c3c(C)noc3C)cc2c1C(OC)C1CCC(F)(F)CC1 (stereo not shown) [P-0045, 4-[3-[(4,4-difluorocyclohexyl)-methoxy-methyl]-2-ethyl-1H-pyrrolo[2,3-b]pyridin-5-yl]-3,5-dimethyl-isoxazole] | < 10 µM | ≤ 1 µM
21 | Cc1noc(C)c1-c1cnc2[nH]cc(Cc3ccccc3OC(F)F)c2c1 [P-0047, 4-[3-[[2-(difluoromethoxy)phenyl]methyl]-1H-pyrrolo[2,3-b]pyridin-5-yl]-3,5-dimethyl-isoxazole] | < 10 µM | 1 to 10 µM
22 | Cc1noc(C)c1-c1cnc2[nH]cc(Cc3cccc4c3OC(F)(F)O4)c2c1 [P-0048, 4-[3-[(2,2-difluoro-1,3-benzodioxol-4-yl)methyl]-1H-pyrrolo[2,3-b]pyridin-5-yl]-3,5-dimethyl-isoxazole] | < 10 µM | 1 to 10 µM
23 | CCc1[nH]c2ncc(-c3c(C)noc3C)cc2c1Cc1ccccc1Cl [P-0049, 4-[3-[(2-chlorophenyl)methyl]-2-ethyl-1H-pyrrolo[2,3-b]pyridin-5-yl]-3,5-dimethyl-isoxazole] | < 10 µM | 1 to 10 µM
24 | Cc1noc(C)c1-c1cnc2ccn(S(=O)(=O)c3ccccc3F)c2c1 [P-0060, 4-[1-(2-fluorophenyl)sulfonylpyrrolo[3,2-b]pyridin-6-yl]-3,5-dimethyl-isoxazole] | < 10 µM | 1 to 10 µM
25 | Cc1ccc(S(=O)(=O)n2ccc3ncc(-c4c(C)noc4C)cc32)s1 [P-0062, 3,5-dimethyl-4-[1-[(5-methyl-2-thienyl)sulfonyl]pyrrolo[3,2-b]pyridin-6-yl]isoxazole] | < 10 µM | 1 to 10 µM
26 | Cc1noc(C)c1-c1cnc2[nH]cc(C(C)(C)c3ccc(F)cc3)c2c1 [P-0063, 4-[3-[1-(4-fluorophenyl)-1-methyl-ethyl]-1H-pyrrolo[2,3-b]pyridin-5-yl]-3,5-dimethyl-isoxazole] | < 10 µM | ≤ 1 µM
